Laboratory results as given in patent US11339171B2, “MDM2 inhibitors” (Gan & Lee Pharmaceuticals, priority 2017, dated 2022).

Tests used:
[1] = molecular target: T1, MDM2 (Homo sapiens, UniProt Q00987); experiment: Inhibition test of MDM2-P53 (GST-MDM2, Biotin-P53, Anti-GST-Tb, SA-XL665); format: binding; conditions: for inhibitory effect on MDM2 compared with positive control compound HDM201: labels are Example numbers, the compounds with S-configuration are meant
T1 construct: made in house
In short: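 Compounds, serially diluted 5-fold (twelve concentrations), were shaken for 90 min at 25° C with a mix of GST-MDM2 (4 nM final), Biotin-P53, anti-GST-Tb and SA-XL665. Buffer: 1×PBS, 0.1% BSA, 5 mM DTT, 1 mM AEBSF; signal read on a microplate reader.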

[2] = tested on: human osteosarcoma cell line SJSA-1; experiment: Inhibition of proliferation of human osteosarcoma cell line SJSA-1 (DAPI staining, In Cell Analyzer); conditions: for inhibitory effect on human osteosarcoma cell line SJSA-1 compared with positive control compound HDM201: labels are Example numbers, the compounds with S-configuration are meant; for IC50: Homo sapiens, SJSA-1, 72 h, read-out: IC50 (nM), inhibitory activity on proliferation of human osteosarcoma cell line SJSA-1, SJSA-1, incubated 72 h

T1 sequence (Q00987 whole entry): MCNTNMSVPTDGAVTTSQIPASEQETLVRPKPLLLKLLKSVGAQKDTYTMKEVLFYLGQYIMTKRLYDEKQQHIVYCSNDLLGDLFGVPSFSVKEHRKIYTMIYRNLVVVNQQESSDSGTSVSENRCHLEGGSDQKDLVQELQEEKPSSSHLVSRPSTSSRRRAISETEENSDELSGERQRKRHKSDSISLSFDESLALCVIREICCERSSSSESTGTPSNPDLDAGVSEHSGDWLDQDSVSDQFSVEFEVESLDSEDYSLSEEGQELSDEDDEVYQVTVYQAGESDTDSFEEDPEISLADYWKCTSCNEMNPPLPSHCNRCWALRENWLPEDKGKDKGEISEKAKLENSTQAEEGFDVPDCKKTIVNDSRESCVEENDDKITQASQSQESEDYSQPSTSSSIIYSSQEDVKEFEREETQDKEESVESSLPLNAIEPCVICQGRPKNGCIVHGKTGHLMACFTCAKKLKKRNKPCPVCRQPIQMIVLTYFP

COc1ccc(-c2nc3c(n2C(C)C)C2(C(=O)Nc4cc(Cl)ccc42)N(c2cc(Cl)cnc2C)C3=O)c(OC)c1 (centres unmarked) [Example 61, 6-chloro-5′-(5-chloro-2-methylpyridin-3-yl)-2′-(2,4-dimethoxyphenyl)-3′-isopropyl-3′H-spiro[dihydroindole-3,4′-pyrrolo[3,4-d]imidazole]-2,6′(5′H)-dione]
inhibitory effect on MDM2 compared with positive control compound HDM201 [1]: better
inhibitory effect on human osteosarcoma cell line SJSA-1 compared with positive control compound HDM201 [2]: better

COc1cc(OC(C)C)ncc1-c1nc2c(n1C(C)C)C1(C(=O)Nc3cc(Cl)ccc31)N(c1cc(Cl)ccc1C)C2=O (centres unmarked) [Example 69, 6-chloro-5′-(5-chloro-2-methylphenyl)-2′-(6-isopropoxy-4-methoxypyridin-3-yl)-3′-isopropyl-3′H-spiro[dihydroindole-3,4′-pyrrolo[3,4-d]imidazole]-2,6′(5′H)-dione]
inhibitory effect on MDM2 compared with positive control compound HDM201 [1]: better
inhibitory effect on human osteosarcoma cell line SJSA-1 compared with positive control compound HDM201 [2]: better

CCOc1cc(OC)c(-c2nc3c(n2C(C)C)C2(C(=O)Nc4cc(Cl)ccc42)N(c2cc(Cl)ccc2C)C3=O)cn1 (centres unmarked) [Example 72, 6-chloro-5′-(5-chloro-2-methylphenyl)-2′-(6-ethoxy-4-methoxypyridin-3-yl)-3′-isopropyl-3′H-spiro[dihydroindole-3,4′-pyrrolo[3,4-d]imidazole]-2,6′(5′H)-dione]
inhibitory effect on MDM2 compared with positive control compound HDM201 [1]: better
inhibitory effect on human osteosarcoma cell line SJSA-1 compared with positive control compound HDM201 [2]: better

COc1cc(N)c(C)cc1-c1nc2c(n1C(C)C)C1(C(=O)Nc3cc(Cl)ccc31)N(c1cc(Cl)ccc1C)C2=O (centres unmarked) [Example 74, 2′-(4-amino-2-methoxy-5-methylphenyl)-6-chloro-5′-(5-chloro-2-methylphenyl)-3′-isopropyl-3′H-spiro[dihydroindole-3,4′-pyrrolo[3,4-d]imidazole]-2,6′(5′H)-dione]
inhibitory effect on MDM2 compared with positive control compound HDM201 [1]: better
inhibitory effect on human osteosarcoma cell line SJSA-1 compared with positive control compound HDM201 [2]: better

COc1cc(N)c(F)cc1-c1nc2c(n1C(C)C)C1(C(=O)Nc3cc(Cl)ccc31)N(c1cc(Cl)ccc1C)C2=O (centres unmarked) [Example 75, 2′-(4-amino-5-fluoro-2-methoxyphenyl)-6-chloro-5′-(5-chloro-2-methylphenyl)-3′-isopropyl-3′H-spiro[dihydroindole-3,4′-pyrrolo[3,4-d]imidazole]-2,6′(5′H)-dione]
inhibitory effect on MDM2 compared with positive control compound HDM201 [1]: better
inhibitory effect on human osteosarcoma cell line SJSA-1 compared with positive control compound HDM201 [2]: better

COc1cc(N(C)C)c(F)cc1-c1nc2c(n1C(C)C)C1(C(=O)Nc3cc(Cl)ccc31)N(c1cc(Cl)ccc1C)C2=O (centres unmarked) [Example 78]
inhibitory effect on MDM2 compared with positive control compound HDM201 [1]: better
inhibitory effect on human osteosarcoma cell line SJSA-1 compared with positive control compound HDM201 [2]: better

COc1nc(N(C)C)ncc1-c1nc2c(n1C(C)C)C1(C(=O)Nc3cc(Cl)ccc31)N(c1cc(Cl)ccc1C)C2=O (centres unmarked) [Example 82, 6-chloro-5′-(5-chloro-2-methylphenyl)-2′-(2-(dimethylamino)-4-methoxypyrimidin-5-yl)-3′-isopropyl-3′H-spiro[dihydroindole-3,4′-pyrrolo[3,4-d]imidazole]-2,6′(5′H)-dione]
inhibitory effect on MDM2 compared with positive control compound HDM201 [1]: better
inhibitory effect on human osteosarcoma cell line SJSA-1 compared with positive control compound HDM201 [2]: better

COc1ccc(C(=O)O)cc1-c1nc2c(n1C(C)C)C1(C(=O)Nc3cc(Cl)ccc31)N(c1cc(Cl)ccc1C)C2=O (centres unmarked) [Example 84, 3-(6-chloro-5′-(5-chloro-2-methylphenyl)-3′-isopropyl-2,6′-dioxo-5′,6′-dihydro-3′H-spiro[dihydroindole-3,4′-pyrrolo[3,4-d]imidazole]-2′-yl)-4-methoxybenzoic acid]
IC50 [1]: 3.78 nM
IC50 [2]: 2610 nM

COc1cc(OC)c(-c2nc3c(n2C(C)C)C2(C(=O)Nc4cc(Cl)ccc42)N(c2cc(Cl)ccc2C)C3=O)cc1F (centres unmarked) [Example 92, 6-chloro-5′-(5-chloro-2-methylphenyl)-2′-(5-fluoro-2,4-dimethoxyphenyl)-3′-isopropyl-3′H-spiro[dihydroindole-3,4′-pyrrolo[3,4-d]imidazole]-2,6′(5′H)-dione]
inhibitory effect on MDM2 compared with positive control compound HDM201 [1]: better
inhibitory effect on human osteosarcoma cell line SJSA-1 compared with positive control compound HDM201 [2]: better

CCOc1cc(OC)c(-c2nc3c(n2C(C)C)C2(C(=O)Nc4cc(Cl)ccc42)N(c2cc(Cl)cnc2C)C3=O)cn1 (centres unmarked) [Example 96, 6-chloro-5′-(5-chloro-2-methylpyridin-3-yl)-2′-(6-ethoxy-4-methoxypyridin-3-yl)-3′-isopropyl-3′H-spiro[dihydroindole-3,4′-pyrrolo[3,4-d]imidazole]-2,6′(5′H)-dione]
inhibitory effect on MDM2 compared with positive control compound HDM201 [1]: better
inhibitory effect on human osteosarcoma cell line SJSA-1 compared with positive control compound HDM201 [2]: better

CCOc1cc(OC)c(-c2nc3c(n2C(C)C)C2(C(=O)Nc4cc(Cl)ccc42)N(c2cc(Cl)ccc2F)C3=O)cn1 (centres unmarked) [Example 98, 6-chloro-5′-(5-chloro-2-fluorophenyl)-2′-(6-ethoxy-4-methoxypyridin-3-yl)-3′-isopropyl-3′H-spiro[dihydroindole-3,4′-pyrrolo[3,4-d]imidazole]-2,6′(5′H)-dione]
inhibitory effect on MDM2 compared with positive control compound HDM201 [1]: better
inhibitory effect on human osteosarcoma cell line SJSA-1 compared with positive control compound HDM201 [2]: better

CCOc1cc(OC)c(-c2nc3c(n2C(C)C)C2(C(=O)Nc4cc(Cl)ccc42)N(c2cccc(Cl)c2)C3=O)cn1 (centres unmarked) [Example 102, 6-chloro-5′-(3-chlorophenyl)-2′-(6-ethoxy-4-methoxypyridin-3-yl)-3′-isopropyl-3′H-spiro[dihydroindole-3,4′-pyrrolo[3,4-d]imidazole]-2,6′(5′H)-dione]
inhibitory effect on MDM2 compared with positive control compound HDM201 [1]: better
inhibitory effect on human osteosarcoma cell line SJSA-1 compared with positive control compound HDM201 [2]: better

COc1cc(C2CC2)ncc1-c1nc2c(n1C(C)C)C1(C(=O)Nc3cc(Cl)ccc31)N(c1cc(Cl)ccc1C)C2=O (centres unmarked) [Example 103, 6-chloro-5′-(5-chloro-2-methylphenyl)-2′-(6-cyclopropyl-4-methoxypyridin-3-yl)-3′-isopropyl-3′H-spiro[dihydroindole-3,4′-pyrrolo[3,4-d]imidazole]-2,6′(5′H)-dione]
inhibitory effect on MDM2 compared with positive control compound HDM201 [1]: better
inhibitory effect on human osteosarcoma cell line SJSA-1 compared with positive control compound HDM201 [2]: better

COc1cc(OC2CC2)ncc1-c1nc2c(n1C(C)C)C1(C(=O)Nc3cc(Cl)ccc31)N(c1cc(Cl)ccc1C)C2=O (centres unmarked) [Example 110, 6-chloro-5′-(5-chloro-2-methylphenyl)-2′-(6-cyclopropoxy-4-methoxypyridin-3-yl)-3′-isopropyl-3′H-spiro[dihydroindole-3,4′-pyrrolo[3,4-d]imidazole]-2,6′(5′H)-dione]
inhibitory effect on MDM2 compared with positive control compound HDM201 [1]: better
inhibitory effect on human osteosarcoma cell line SJSA-1 compared with positive control compound HDM201 [2]: better

COc1cc(N(C)C)ncc1-c1nc2c(n1C(C)C)C1(C(=O)Nc3cc(Cl)ccc31)N(c1cccc(Cl)c1)C2=O (centres unmarked) [Example 113, 6-chloro-5′-(3-chlorophenyl)-2′-(6-(dimethylamino)-4-methoxypyridin-3-yl)-3′-isopropyl-3′H-spiro[dihydroindole-3,4′-pyrrolo[3,4-d]imidazole]-2,6′(5′H)-dione]
inhibitory effect on MDM2 compared with positive control compound HDM201 [1]: better
inhibitory effect on human osteosarcoma cell line SJSA-1 compared with positive control compound HDM201 [2]: better

COc1cc(OC)c(-c2nc3c(n2C(C)C)C2(C(=O)Nc4cc(Cl)ccc42)N(c2cccc(Cl)c2)C3=O)cn1 (centres unmarked) [Example 115, 6-chloro-5′-(3-chlorophenyl)-2′-(4,6-dimethoxypyridin-3-yl)-3′-isopropyl-3′H-spiro[dihydroindole-3,4′-pyrrolo[3,4-d]imidazole]-2,6′(5′H)-dione]
inhibitory effect on MDM2 compared with positive control compound HDM201 [1]: better
inhibitory effect on human osteosarcoma cell line SJSA-1 compared with positive control compound HDM201 [2]: better

CCc1cc(-c2nc3c(n2C(C)C)C2(C(=O)Nc4cc(Cl)ccc42)N(c2cc(Cl)ccc2C)C3=O)c(OC)cc1N(C)C (centres unmarked) [Example 125, 6-chloro-5′-(5-chloro-2-methylphenyl)-2′-(4-(dimethylamino)-5-ethyl-2-methoxyphenyl)-3′-isopropyl-3′H-spiro[dihydroindole-3,4′-pyrrolo[3,4-d]imidazole]-2,6′(5′H)-dione]
IC50 [1]: 20.8 nM
IC50 [2]: 60.3 nM

COc1nc(OC(C)C)ncc1-c1nc2c(n1C(C)C)C1(C(=O)Nc3cc(Cl)ccc31)N(c1cc(Cl)ccc1C)C2=O (centres unmarked) [Example 126, 6-chloro-5′-(5-chloro-2-methylphenyl)-2′-(2-isopropoxy-4-methoxypyrimidin-5-yl)-3′-isopropyl-3′H-spiro[dihydroindole-3,4′-pyrrolo[3,4-d]imidazole]-2,6′(5′H)-dione]
inhibitory effect on MDM2 compared with positive control compound HDM201 [1]: better
inhibitory effect on human osteosarcoma cell line SJSA-1 compared with positive control compound HDM201 [2]: better

COc1cc(OC)c(-c2nc3c(n2C(C)C)C2(C(=O)Nc4cc(Cl)ccc42)N(c2cc(Cl)cnc2C)C3=O)cn1 (centres unmarked) [Example 131, 6-chloro-5′-(5-chloro-2-methylpyridin-3-yl)-2′-(4,6-dimethoxypyridin-3-yl)-3′-isopropyl-3′H-spiro[dihydroindole-3,4′-pyrrolo[3,4-d]imidazole]-2,6′(5′H)-dione]
inhibitory effect on MDM2 compared with positive control compound HDM201 [1]: better
inhibitory effect on human osteosarcoma cell line SJSA-1 compared with positive control compound HDM201 [2]: better
